Data: publication PMC6389950, “Small Peptide Ligands for Targeting EGFR in Triple Negative Breast Cancer Cells” (Scientific Reports, 2019)
Where a SMILES comes first, the peptide text is derived from it. The star is where a group is joined. FITC = O=C1OC2(c3ccc(O)cc3Oc3cc(O)ccc32)c2ccc(NC(=S)*)cc21; βAla = NCCC(=O)O

Experiments:
MDA-MB-468 [1] = assay: In vitro cellular uptake of FITC-labeled peptides by FACS; type: cell-based; settings: 30 min, 37 °C; for Mean Fluorescence Intensity ± SD MDA-MB-468: soluble FITC-β-alanine-labeled peptide 1 µM, FBS free media, 10^5 or 10^6 cells/well, MFI of FITC positive cells, three independent experiments ± SD
From the text: (§1) Flow cytometry was employed to determine the cellular uptake of selected six peptides (1, 4, 22, 23, 26, and 27). As opposed to the membrane bound (conjugated) peptide in library screening, the peptides used here were soluble (or free) FITC-labeled peptides. Peptides were labeled with FITC in the N-terminal and a β-alanine residue was used as a spacer between the FITC and the peptide sequence. The same three TNBC cells lines (MDA-MB-468, MDA-MB-231 and MDA-MB-436) used for peptide array screening were used here as well. Peptides 1 and 4 were used as controls. […] Peptide 4 was included in this experiment to compare the uptake of this keratin 1 binding peptide with the EGFR binding peptides. Peptides 22, 23, 26, and 27 were identified as the best EGFR binding peptides from the library screening.
(§2) Fluorescence-activated cell-sorting (FACS) analysis was used to check the uptake of the FITC-peptides. The stock solution for the FITC-peptides (100 μM) was prepared by dissolving the peptides in sterile water/10% DMSO. MDA-MB-231, MDA-MB-468 and MDA-MB-436 cells were seeded in 6-well plates with 10^6/10^5 cells/well containing 3 mL media and the plates were incubated at 37 °C overnight. The following day, the media was replaced with fresh FBS free media (1 mL) containing FITC-labeled peptide (1 µM), and further incubated at 37 °C for 30 min. Thereafter the media was removed and the cells were washed with cold PBS to remove any remaining peptide. Adequate trypsin was added to each well followed by 3–5 min incubation at 37 °C. Trypsin was immediately neutralized by adding media and the cell suspension was transferred into centrifuge tubes. The cells were separated and washed twice with FACS sheath fluid. The control cells were treated similarly but without peptide. Two wells were assigned for each peptide and each well sample was read twice in FACS machine. The experiment was repeated once. MFI represents the average of all wells for each peptide.

MDA-MB-436 [2] = assay: as above; type: cell-based; settings: soluble FITC-β-alanine-labeled peptide 1 µM, 30 min, 37 °C, FBS free media, 10^5 or 10^6 cells/well, MFI of FITC positive cells, three independent experiments ± SD
From the text: as §1, §2

MDA-MB-231 [3] = assay: as above; type: cell-based; settings: 30 min, 37 °C; for Mean Fluorescence Intensity ± SD MDA-MB-231: soluble FITC-β-alanine-labeled peptide 1 µM, FBS free media, 10^5 or 10^6 cells/well, MFI of FITC positive cells, three independent experiments ± SD
From the text: as §1, §2

EGFR on MDA-MB-231 cells = target: T1, EGFR on MDA-MB-231 cells (Homo sapiens, UniProt P00533); assay: Competitive uptake by FACS with excess EGF protein or unlabeled peptide 1; type: cell-based; settings: MDA-MB-231 cells (10^5), FITC-peptide 1 μM, 30 min
T1 construct: host or cells: MDA-MB-231
Experimental: The specific uptake of peptides 1 and 22 was evaluated using a competitive assay. First, MDA-MB-231 cells were incubated with peptide FITC-1 in the presence and absence of excess EGF protein (20-fold). […] The competition experiment was also repeated with peptide 22 in the presence and absence of EGF protein.
In addition, MDA-MB-231 cells (10^5) were incubated with varying concentration of peptide FITC-22 (0–6 μM). The resulting samples were treated as above, and the experiment was repeated. The fluorescence intensity of the FITC peptide-cell complex was plotted against peptide concentration. […] Control group was treated with media alone containing ~5% DMSO. Each group was done in duplicate and the experiment was repeated once.

[4] = Peptide stability in human serum; type: in vitro ADME; settings: preliminary results, data not shown
MDA-MB-468 [5] = assay: Peptide array-whole cell binding assay; type: cell-based; settings: peptide conjugated to cellulose membrane (amino-PEG500), no free C-terminus; cells 75 × 10^3 cells/mL, 37 °C, 4 h; CyQUANT fluorescence relative to peptide 1; spots in duplicate
From the text: (§3) Peptide array on the cellulose membrane was used to evaluate the binding of each peptide to different cell lines. The amino functionalized cellulose membrane provided by Intavis is acid hardened providing high stability at pH range from 1–14, permitting its use in acidic or basic conditions while maintaining membrane integrity. The PEG linker on membrane surface functions as a hydrophilic spacer between the peptide and the solid surface (membrane) reducing background signal. Cell lines were carefully selected for screening peptides as our goal here is to screen peptides with high binding/uptake by the TNBC cells. […] EGFR is overexpressed by a number of TNBC cells such as MDA-MB-468 (obtained from primary tumor source) and MDA-MB-231 (from metastasis cancer tissue)[13],[14]. While other TNBC cells like MDA-MB-436 (obtained from metastasis cancer tissue) are known to express low levels of EGFR. Non-tumorigenic epithelial MCF10A and MCF12A cells derived from the breast tissue also express low levels of EGFR[14],[34]. We selected two TNBC cell lines with relatively high expression of EGFR expression (MDA-MB-468/231) and a TNBC cell line with low level of EGFR expression (MDA-MB-436) for the peptide array screening experiments. In addition, non- tumorigenic cell line, MCF-10A was used for comparison. These four cell lines were allowed to bind the membrane by seeding the cells on the membrane and the bound cells were labeled with a fluorescent dye CyQUANT.
(§4) For the binding assay, the peptide array was incubated with the cells in sequential steps as described previously. Briefly peptide array membrane was dipped in ethanol for 30 s to remove any precipitation on it, followed by dipping in sterile PBS (pH 7.4) for another 30 min. The cells (75 × 10^3 cells/mL) were seeded directly on the membrane in a sterile plate and incubated at 37 °C for 4 h. The unbound cells were washed out with sterile PBS (pH 7.4). Thereafter the membrane was placed in a sealed bag and transferred to −80 °C freezer for 2 h. Subsequently it was defrosted at room temperature and treated with CyQUANT solution. The CyQUANT concentration was optimized based on the manufacturer’s protocol and preliminary experiments. Membrane was incubated at 37 °C for 30 min with the dye. After washing with sterile PBS and air drying using blow dryer, the membrane was scanned using Bio-rad chemidoc imager with image lab software. The settings were adjusted based on the excitation (465 nm) and emission (535 nm) wavelengths of CyQUANT dye. Epi Blue was selected for the light source (455–485 nm) and filter number 4 (blue filter, 518–546 nm) was employed. The fluorescence intensity of cancer cells read using chemidoc imager was normalized using the non-cancer cell fluorescence intensity. Eventually relative fluorescence was assessed to select peptides with high affinity to cancer cells and low or minimal binding to normal cells.

MDA-MB-436 [6] = assay: Peptide array-whole cell binding assay; type: cell-based; settings: peptide conjugated to cellulose membrane (amino-PEG500), no free C-terminus; cells 75 × 10^3 cells/mL, 37 °C, 4 h; CyQUANT fluorescence relative to peptide 1; spots in duplicate
From the text: as §3, §4

MDA-MB-231 [7] = assay: Peptide array-whole cell binding assay; type: cell-based; settings: peptide conjugated to cellulose membrane (amino-PEG500), no free C-terminus; cells 75 × 10^3 cells/mL, 37 °C, 4 h; CyQUANT fluorescence relative to peptide 1; spots in duplicate
From the text: as §3, §4

MCF-10A = assay: Peptide array-whole cell binding assay; type: cell-based; settings: non-tumorigenic cells; peptide conjugated to cellulose membrane (amino-PEG500); cells 75 × 10^3 cells/mL, 37 °C, 4 h; CyQUANT fluorescence relative to peptide 1; spots in duplicate
From the text: as §3, §4

breast cancer cells = settings: compared to linear peptide 18–4; cited from earlier work
From the text: (§5) We found a region in EGF that may have structural similarity to peptide 22 (Fig. 4b). There is low sequence homology between the two sequences (peptide 22 and 12-residue region of EGF), however, based on the pr ...

[8] = cited from earlier work
From the text: as §5

[9] = target: T2, epidermal growth factor receptor (EGFR or ErbB1) (human (endogenous in MDA-MB-468, …, UniProt P00533 25-1210)); assay: flow cytometry on cells; competition: MDA-MB-231 cells (10^5); EGF (20 µM, 20-fold excess) or unlabeled peptide 1 (100 µM, 100-fold excess) added first, then FITC-labelled peptide 1 or 22 (1 µM), 30 min; settings: one partner purified
T2 construct: epidermal growth factor receptor, endogenous on human breast cell lines; expression levels are cited, not measured here; no isolated EGFR was used

[10] = soluble FITC-labeled peptide 1 µM

Molecule: CC[C@H](C)[C@H](NC(=O)[C@@H](NC(=O)[C@H](CC(N)=O)NC(=O)[C@H](CCC(=O)O)NC(=O)[C@@H]1CCCN1C(=O)[C@@H](NC(=O)[C@H](Cc1ccc(O)cc1)NC(=O)CNC(=O)[C@H](Cc1ccc(O)cc1)NC(=O)[C@H](Cc1c[nH]c2ccccc12)NC(=O)[C@H](Cc1c[nH]cn1)NC(=O)[C@@H](N)Cc1ccc(O)cc1)[C@@H](C)O)C(C)C)C(=O)O [Peptide 22] (H-YHWYGYTPENVI-OH)
- Uptake compared to peptide 1, MDA-MB-468 (MDA-MB-468 [1]; [10]): 123 fold
- Mean Fluorescence Intensity ± SD MDA-MB-468 (MDA-MB-468 [1]): 8384 ± 735
- Mean Fluorescence Intensity ± SD MDA-MB-436 (MDA-MB-436 [2]): 41 ± 27
- Uptake compared to peptide 1, MDA-MB-231 (MDA-MB-231 [3]; [10]): 47 fold
- Mean Fluorescence Intensity ± SD MDA-MB-231 (MDA-MB-231 [3]): 1978 ± 522
- FITC positive cells, no competitor (EGFR on MDA-MB-231 cells; rounded value): 99%
- Decrease in fluorescence / FITC positive cells in the presence of 20-fold excess EGF protein (EGFR on MDA-MB-231 cells; EGF 20 μM): 97%
- FITC positive cells in the presence of 20-fold excess EGF protein (EGFR on MDA-MB-231 cells; EGF 20 μM, rounded value): 2%
- Stability in the presence of human serum (in words) [4]: short half-life
- Relative Cell Adhesion MDA-MB-468 (MDA-MB-468 [5]): 1.6
- Relative Cell Adhesion MDA-MB-436 (MDA-MB-436 [6]): 1.3
- Relative Cell Adhesion MDA-MB-231 (MDA-MB-231 [7]): 2.6
- Relative Cell Adhesion MCF-10A (MCF-10A): 1.2

Molecule: FITC-AβYHWYGYTPQNVI [FITC-1, reference compound]
- Decrease in fluorescence in the presence of 100-fold excess unlabeled peptide 1 (EGFR on MDA-MB-231 cells; unlabeled peptide 1 100 μM): 19.5%

Molecule: Peptide 1: previously reported EGFR targeting dodecapeptide GE11 (YHWYGYTPQNVI), lead peptide [reference compound]
- Mean Fluorescence Intensity ± SD MDA-MB-468 (MDA-MB-468 [1]): 68 ± 45
- Mean Fluorescence Intensity ± SD MDA-MB-436 (MDA-MB-436 [2]): 105 ± 11
- Mean Fluorescence Intensity ± SD MDA-MB-231 (MDA-MB-231 [3]): 42 ± 8
- Stability in the presence of human serum (in words) [4]: short half-life

Molecule: cyclic WXEAAYQkFL (head to tail) [N- to C terminal cyclized analogue of breast cancer targeting peptide 18–4, k is D-lysine]
- Uptake by the breast cancer cells compared to the linear peptide (in words) (breast cancer cells): higher uptake
- Stability toward proteolytic degradation (in words) [8]: stable toward proteolytic degradation

B1: FITC-labeled soluble peptide 22 (peptide)
peptide: {FITC-βAla}-YHWYGYTPENVI-OH
notes: GE11 analogue, Q9E; also called peptide FITC-22; FITC-22; source: synthetic peptide (Fmoc-SPPS, RP-HPLC purified)
- percent FITC positive cells, with 20-fold excess EGF [9]: 2%
